We go through 7 compounds from patent publication US7696240B2, “Fused pyrrole derivatives” (Hoffmann-La Roche Inc., priority 2005, dated 2010).

Broadly, the IC50 is the concentration that gives 50% inhibition. A low value points to inhibition by little substance.

This assay concerns the target T1, Chymase purified form human skin mast cells (Homo sapiens, UniProt P23946).
T1 construct: Chymase purified form human skin mast cells was obtained from Calbiochem; purchased Calbiochem (Merck Biosciences, San Diego, Calif., USA); host or cells: human skin mast cells (natural source)
T1 sequence (P23946 22-247): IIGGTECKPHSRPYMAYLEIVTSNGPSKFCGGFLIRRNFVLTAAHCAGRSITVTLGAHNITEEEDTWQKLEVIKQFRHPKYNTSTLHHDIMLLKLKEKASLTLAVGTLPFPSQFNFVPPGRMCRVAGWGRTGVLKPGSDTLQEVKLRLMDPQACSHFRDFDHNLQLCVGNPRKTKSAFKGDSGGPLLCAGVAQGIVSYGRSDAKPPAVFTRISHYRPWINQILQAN
Nature of the assay: chymase peptide substrate (AAPF-AMC) fluorescence assay. The conditions noted are these: 0.02 mM AAPF-substrate, 0.1 nM Chymase, pH 7.4, room temperature, 30 min pre-incubation. The assay is classed as biochemical. On the procedure:
The peptide was synthesized with a purity of 95% from Bachem, Bubendorf, Switzerland). Chymase purified form human skin mast cells was obtained from Calbiochem (Merck Biosciences, San Diego, Calif., USA). The assay buffer was 0.15 M NaCl, 0.05M, Tris HCl, 0.05% CHAPS (3-[(3-Cholamidopropyl)-dimethylammonio]-1-propane sulphonate), 0.1 mg/ml Heparin (Heparin sodium, Sigma, porcine intestinal mucosa), 0.02 mM AAPF-substrate, 0.1 nM Chymase at pH 7.4. The assay was performed in 96-well plates (Packard Optiplate), with a 0.05 ml volume at room temperature. Chymase activity was indicated by the initial rate of increase in fluorescence at 340/440 nm (excitation/emission) from free 7-amino-4-methylcoumarin released from the substrate. Inhibition of the activity by inhibitory compounds was read after 30 min pre-incubation with the chymase at room temperature in assay buffer without AAPF-substrate. The assay was then started by addition of the indicated concentration of AAPF-substrate.

On to `O=C(O)Cc1c(C(=O)O)n(Cc2cccc3ccccc23)c2ccccc12` [Example 5, 3-Carboxymethyl-1-naphthalen-1-ylmethyl-1H-indole-2-carboxylic acid], for which the IC50 stood at 37 nM.

`Cc1ccc(C(=O)NCc2c(C(=O)O)n(Cc3cccc4ccccc34)c3ccccc23)cc1` [Example 10, 3-[(4-Methyl-benzoylamino)-methyl]-1-naphthalen-1-ylmethyl-1H-indole-2-carboxylic acid] registered an IC50 of 38 nM.

Compound `O=C(O)c1cc2ccccc2n1Cc1cccc2ccc(F)cc12` [Example 49, 1-(7-Fluoro-naphthalen-1-ylmethyl)-1H-indole-2-carboxylic acid] gave a half-maximal inhibitory concentration (IC50) of 17 nM.

The compound `O=C(O)c1cc2ccccc2n1Cc1csc2ccc(F)cc12` [Example 55, 1-(5-Fluoro-benzo[b]thiophen-3-ylmethyl)-1H-indole-2-carboxylic acid] showed a half-inhibitory concentration (IC50) of 30 nM.

Regarding `CS(=O)(=O)NCc1c(C(=O)O)n(Cc2cccc3ccc(F)cc23)c2ccccc12` [Example 105, 1-(7-Fluoro-naphthalen-1-ylmethyl)-3-(methanesulfonylamino-methyl)-1H-indole-2-carboxylic acid], the IC50 was determined as 0.8 nM. This IC50 is about 38-fold lower than that of the compound before.

The compound `COC(=O)N(C)Cc1c(C(=O)O)n(Cc2cccc3ccc(F)cc23)c2ccccc12` [Example 106, 1-(7-Fluoro-naphthalen-1-ylmethyl)-3-[(methoxycarbonyl-methyl-amino)-methyl]-1H-indole-2-carboxylic acid] displayed a half-inhibitory concentration (IC50) of 0.2 nM.

For the compound `COC(=O)N(C)Cc1c(C(=O)O)n(Cc2csc3ccc(F)cc23)c2ccccc12` [Example 117, 1-(5-Fluoro-benzo[b]thiophen-3-ylmethyl)-3-[(methoxycarbonyl-methyl-amino)-methyl]-1H-indole-2-carboxylic acid], the half-inhibitory concentration (IC50) was found to be 1 nM.
